# Results reported in patent US20130023587A1, “COMPOSITIONS AND METHODS FOR THE TREATMENT OF CANCER” (DUKE UNIVERSITY, priority 2010, published 2013).
# Entries after “also recorded” stand apart in the source; their conditions may differ.
# Columns and labels:
# R3230 cells [1] = experiment: Clonogenic assay; type: cell-based, rat
# Excerpt: Cells were washed and returned to normal growth medium. 14 days later, colonies were stained with crystal violet and counted.
# MCT-1 = target: T1, MCT-1 (Rattus norvegicus, UniProt P53987); experiment: 13C NMR of lactate uptake and catabolism to alanine and glutamate in R3230 cells; type: cell-based; conditions: 5 mM CHC
# T1 construct: endogenous in cells; host or cells: R3230 rat mammary carcinoma cells
# T1 sequence (P53987 1-494): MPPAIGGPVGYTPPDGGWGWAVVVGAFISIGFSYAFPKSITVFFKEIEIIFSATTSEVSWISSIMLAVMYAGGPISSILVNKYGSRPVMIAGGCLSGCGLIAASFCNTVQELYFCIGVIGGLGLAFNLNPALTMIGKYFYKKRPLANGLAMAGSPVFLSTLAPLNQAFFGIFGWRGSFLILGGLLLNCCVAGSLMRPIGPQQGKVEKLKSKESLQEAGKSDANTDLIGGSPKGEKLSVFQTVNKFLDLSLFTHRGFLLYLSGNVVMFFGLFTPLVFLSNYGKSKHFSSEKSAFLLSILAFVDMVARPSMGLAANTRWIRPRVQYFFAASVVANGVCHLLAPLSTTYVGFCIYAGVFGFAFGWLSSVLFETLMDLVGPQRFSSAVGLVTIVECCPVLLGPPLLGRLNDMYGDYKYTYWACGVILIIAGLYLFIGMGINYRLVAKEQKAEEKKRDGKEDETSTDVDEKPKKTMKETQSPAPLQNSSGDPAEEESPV
# Procedure: ^1H-NMR and ^13C-NMR: R3230 cells were grown to 60% confluency. Cells were washed and exposed to DMEM with varying concentrations of ^13C-methyl labeled L-lactate solution (Sigma, St. Louis, Mo.), without serum and glucose. Cells were washed, mounted with 60% perchloric acid, scraped down, and centrifuged at 8,000 G for 5 min; PBS (20% vol/vol) and 98% deuterated water (10% vol/vol) (Sigma, St. Louis, Mo.) were added to supernatants to a total of 600 uL for NMR. For medium sample analysis, 10% vol/vol deuterated water was added to the medium before NMR analysis. NMR spectra were recorded on a Varian 500 MHz VNMRS spectrometer equipped with a Dell Optiplex 755 data system and a 5 mm Varian inverse probe. ^1H NMR spectra were obtained with a spectral width (SW) of 5.5 kHz, a 67 pulse flip angle (6 us), a 6.4 s acquisition time (AT), a 2 sec water presaturation pulse and relaxation delay (RD), and digitized using 64000 points to obtain a digital resolution of 0.172 Hz per point. ^1H-decoupled ^13C spectra were recorded at 125 MHz with a 32051.3 Hz SW, a 60 pulse flip angle (6.5 us), a 2.0 s AT, a 0.7 s RD and digitized into 130,000 points to yield a digital resolution of 0.493 Hz per point.
# R3230 cells [2] = experiment: Measurement of metabolic rates (glucose consumption) in cultured R3230 cells; type: cell-based, rat
# Procedure: (§1) Tissue culture and measurement of metabolic rates: The R3230 rat mammary carcinoma was originally derived from a spontaneous mammary carcinoma of the Fischer 344 rat (Hilf et al, 1965; Lindberg et al, 1996). Cells were exposed to 6% or 0.5% oxygen (Vaupel et al, 1991) at 37° C., and […] in glucose- and serum-free DMEM, while dishes were placed on a slow-moving rocker. Cells were counted and media samples were collected at the beginning and end of the experiment, and analyzed for glucose and lactate content using a CMA microdialysis analyzer (CMA, Sweden).
# R3230 cells [3] = experiment: Measurement of redox changes (NAD+/NADH optical density 260/340 nm); type: cell-based, rat; conditions: within 2 minutes after isovolumic addition
# Procedure: Measurement of redox changes: Cells were trypsinized, washed, and brought to 5×10^6/mL in PBS. 1 mL of cell suspension was scanned for optical density in a cuvette at 260 nm (NAD^+) and 340 nm (NADH+H^+). Various concentrations of Na-lactate in PBS were added at 20 μL/mL.
# R3230 cells [4] = experiment: pHi measurements with BCECF-AM; type: cell-based, rat; conditions: fluorescent dye BCECF-AM
# Procedure: pHi measurements: Cells were grown on glass coverslides and incubated with BCECF-AM (Invitrogen) at 5 μM for 20 min, and imaged on an inverted fluorescence microscope, with excitation at 440 and 490 nm, emission 535 nm. Ratiometric pH calibration was done in mixture ratios of buffers containing 110 mM K2HPO4 or 135 mM KH2PO4, and 20 mM NaCl, respectively. Nigericin was added at 10 μM (Franck et al, 1996) and pH expressed as ratios of grayscale values from stacks of calibration images taken from the nigericin-treated cells, imaged at 440 and 490 nm (Franck et al, 1996).
# R3230 Ac = experiment: Uptake kinetics of 14C-lactate or 14C-glucose in vivo (3-compartment model); set-up: species or system rat; conditions: 14C-labeled metabolite infused i.v., fitted rate constant
# Procedure: Uptake kinetics of ^14C-lactate in vivo: Kinetics of ^14C-lactate or ^14C-glucose uptake were studied using a novel implantable fiber optic radiation detection probe provided by Sicel Technologies Inc., Durham, N.C. Time uptake curves from tumor, subcutaneous, and blood compartments were analyzed using a 3-compartment model from which were derived parameters related to the transfer coefficients in and out of the tumor and blood clearance (see Supplemental methods for detail). The apparatus detected beta radiation from ^14C, which is proportional to ^14 C-lactate or ^14C-glucose concentration. Probes were inserted into tumors of anesthetized rats (Isoflurane as above) and subcutaneous tissue as a control. Each probe was calibrated using ^14C-glucose solutions of known concentration (μCi/mL) immediately before the experiment. After a stabilization period of 50 min, 50 μCi of ^14C-lactate or ^14C-glucose was infused intravenously. Data were recorded in two-minute intervals over 3 h. Baseline (background, dark current values) were subtracted from each time point.
# Normalization to the calibration solution was done to control for variations in probe performance and length of probe used in different tumors. The relationship between photons detected and concentration (μCi/mL) was linear, based on experiments done by the company. Data were graphed as the change in μCi/mL over time, and normalized to dose/body weight (μCi/g) to obtain a standardized uptake value (SUV).
# In separate animals, blood samples (300 μL-500 μL) were taken at 0, 4, 7, 10, 15, 25, 30, 60, 100, and 160 minutes from the arterial cannula following ^14C-radioisotope infusion. Samples were centrifuged, and plasma collected and weighed. Plasma activities were measured in a liquid scintillation counter (Packard Tri-Carb 1500, Perkin Elmer Life and Analytical Sciences Inc., Boston Mass.) and isotope concentrations (μCi/g) were calculated. Blood activity data were normalized to dose/body weight. Time uptake curves from tumor, subcutaneous, and blood compartments were analyzed using a 3-compartmental model.
# The equations defining tracer kinetics were the following:
# dCp/dt=−(k1+k4+k0)Cp+k2Ct+k5Cs (1)
# Cp, Ci, and Cs were the tracer concentration in central blood compartment, tumor cells, and subcutaneous tissue, respectively. Ct was the measured compound concentration in tumor. Vb was the vascular volume fraction. Due to the nature of the measurement, the tumor probe collected photon counts from both tumor cells and nearby vasculature. The last equation described vascular contribution to the overall photon counts in the tumor tissue. Ki was the transfer constant between each compartment. The averaged isotope concentration in plasma was used to create an empirical blood curve to be used in the model. […]
# R3230 cells [5] = experiment: Survival of R3230 cells by counts of attached cells; type: cell-based, rat
# Procedure: (F) Effect of Na-lactate concentration on cellular NAD/NADH ratio (expressed as light absorbance ratio, 260/340 nm).
# as §1
SMILES,"effect on clonogenic survival, higher concentrations of CHC (R3230 cells [1]; any ambient lactate)","effect on clonogenic survival, low concentrations of CHC (R3230 cells [1]; high ambient lactate (>5mM) versus low lactate (0-5 mM))","effect on lactate catabolism to alanine and glutamate (MCT-1; 40 mM 13C-lactate, 24 h, glucose/serum free)","effect on lactate uptake, low lactate (MCT-1; lactate 5 mM)","effect on lactate uptake, high lactate (MCT-1; lactate 40 mM)",effect of escalated extracellular lactate on glucose consumption (R3230 cells [2]; glucopenic conditions),"inhibition of glucose consumption (R3230 cells [2]; glucose 0.2 mM, 18 hr incubation, 6% O2)",effect on NAD+/NADH2+ (reductive stress) (R3230 cells [3]),effect on intracellular pH (R3230 cells [4]),K1 Transfer rate into tumor (R3230 Ac; R3230 Ac tumour-bearing rats),K2 Transfer rate out of tumor (R3230 Ac; R3230 Ac tumour-bearing rats),K4 Transfer rate into SQ (R3230 Ac; subcutaneous tissue),K5 Transfer rate out of SQ (R3230 Ac; subcutaneous tissue),effect on survival under glucose starvation (R3230 cells [5]; lactate 2.5 mM),Na-lactate concentration leading to decreased survival (counts of attached cells) (R3230 cells [5]; under glucose deprivation)
"N#CC(=Cc1ccc(O)cc1)C(=O)O [CHC, α-cyano-4-hydroxycinnamate]","cytotoxic, independent of ambient lactate",selectively reduced R3230 clonogenic survival at high ambient lactate,effectively inhibited catabolism of lactate to glutamate and alanine; also recorded: inhibited breakdown of lactate and conversion into alanine and glutamate,effectively inhibited lactate uptake,lactate uptake persisted,,,,,,,,,,
"CC(O)C(=O)O (stereo not drawn) [Lactate, lactate]",,,,,,inhibited glucose consumption in a concentration-dependent manner,41%,concentration-dependent drop,concentration-dependent reduction of intracellular pH,0.2381,0.06182,0.00144,0.07439,rendered a survival advantage,> 2.5 mM
